# Measurements from the supplement of paper PMC10307832.
# Compound: CC(C)C[C@H](NC(=O)[C@H](CCc1ccccc1)NC(=O)CN1CCOCC1)C(=O)N[C@@H](Cc1ccccc1)C(=O)N[C@@H](CC(C)C)C(=O)[C@@]1(C)CO1 [Carfilzomib] + CS(=O)(=O)N1CCN(Cc2cc3nc(-c4cccc5[nH]ncc45)nc(N4CCOCC4)c3s2)CC1 [Pictilisib] (partner 1 µM)
# Test: relative viability (nuclei count vs DMSO), 5 days (fraction); higher = more cells survive
# Settings: first compound 0.001 µM
# Outline: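 After 5 days of treatment, lung cancer cells in 1536-well plates were fixed and stained in a single step (final 0.05% Triton X-100, 1% formaldehyde, 1 ug/ml Hoechst) and their nuclei counted on 4× images. Treatment had been applied by pin tool the day after seeding as one drug alone or as a fixed anchor-drug dose with five library-drug doses (not always all listed) in √10 steps. Relative viability is the nuclei count of treated wells divided by that of vehicle wells, and values are medians of duplicate plates.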
row,Cell Line,relative viability
1,201T,0.67
2,A549,0.525
3,A-427,0.776
4,ABC-1,0.691
5,BEN,0.635
6,COR-L23,0.756
7,COR-L 105,0.414
8,Calu-6,1.01
9,EBC-1,0.407
10,EKVX,0.443
11,EMC-BAC-2,0.503
12,EPLC-272H,0.188
13,H3255,0.433
14,HARA,0.422
15,HCC-15,0.596
16,HCC-44,0.506
17,HCC-78,0.207

row,Cell Line,relative viability
1,HCC-366,0.129
2,HCC-827,1.06
3,HOP-62,0.569
4,IA-LM,0.293
5,LC-2-ad,0.448
6,LCLC-97TM1,0.214
7,LCLC-103H,0.616
8,LOU-NH91,0.51
9,NCI-H358,0.424
10,NCI-H441,0.486
11,NCI-H1299,0.735
12,NCI-H1395,0.564
13,NCI-H1703,0.202
14,NCI-H1944,0.353
15,NCI-H2170,0.317
16,SK-MES-1,0.338

# Same assay, conditions: first compound 0.003162 µM
row,Cell Line,relative viability
1,201T,0.659
2,A549,0.472
3,A-427,0.734
4,ABC-1,0.471
5,BEN,0.679
6,CAL-12T,0.767
7,COR-L23,0.806
8,COR-L 105,0.437
9,Calu-6,0.97
10,ChaGo-K-1,1.27
11,EBC-1,0.347
12,EKVX,0.492
13,EMC-BAC-2,0.612
14,EPLC-272H,0.363
15,H3255,0.52
16,HARA,0.609
17,HCC-15,0.863
18,HCC-44,0.674

row,Cell Line,relative viability
1,HCC-78,0.194
2,HCC-366,0.175
3,HCC-827,1.08
4,HOP-62,1.11
5,IA-LM,0.305
6,LC-2-ad,0.525
7,LCLC-97TM1,0.223
8,LCLC-103H,0.659
9,LK-2,0.826
10,LOU-NH91,0.525
11,NCI-H358,0.453
12,NCI-H441,0.569
13,NCI-H1299,0.838
14,NCI-H1395,0.644
15,NCI-H1703,0.3
16,NCI-H1944,0.344
17,NCI-H2170,0.349
18,SK-MES-1,0.419

# Same assay, conditions: first compound 0.01 µM
row,Cell Line,relative viability
1,201T,0.668
2,A549,0.44
3,A-427,0.632
4,ABC-1,0.237
5,BEN,0.587
6,CAL-12T,0.586
7,COR-L23,0.678
8,COR-L 105,0.346
9,Calu-6,0.798
10,ChaGo-K-1,0.839
11,EBC-1,0.192
12,EKVX,0.542
13,EMC-BAC-2,0.586
14,EPLC-272H,0.322
15,H3255,0.426
16,HARA,0.385
17,HCC-15,0.784
18,HCC-44,0.57

row,Cell Line,relative viability
1,HCC-78,0.236
2,HCC-366,0.17
3,HCC-827,1.06
4,HOP-62,0.467
5,IA-LM,0.292
6,LC-2-ad,0.455
7,LCLC-97TM1,0.122
8,LCLC-103H,0.718
9,LK-2,0.64
10,LOU-NH91,0.477
11,NCI-H358,0.305
12,NCI-H441,0.144
13,NCI-H1299,0.6
14,NCI-H1395,0.593
15,NCI-H1703,0.17
16,NCI-H1944,0.322
17,NCI-H2170,0.327
18,SK-MES-1,0.337

# Same assay, conditions: first compound 0.03162 µM
row,Cell Line,relative viability
1,201T,0.727
2,A549,0.118
3,A-427,0.296
4,ABC-1,0.249
5,BEN,0.523
6,CAL-12T,0.304
7,COR-L23,0.0485
8,COR-L 105,0.289
9,Calu-6,0.108
10,ChaGo-K-1,0.523
11,EBC-1,0.0926
12,EKVX,0.476
13,EMC-BAC-2,0.574
14,EPLC-272H,0.0934
15,H3255,0.423
16,HARA,0.0609
17,HCC-15,0.522
18,HCC-44,0.654

row,Cell Line,relative viability
1,HCC-78,0.134
2,HCC-366,0.312
3,HCC-827,1.05
4,HOP-62,0.0638
5,IA-LM,0.0283
6,LC-2-ad,0.149
7,LCLC-97TM1,0.114
8,LCLC-103H,0.685
9,LK-2,0.266
10,LOU-NH91,0.312
11,NCI-H358,0.147
12,NCI-H441,0.105
13,NCI-H1299,0.0711
14,NCI-H1395,0.479
15,NCI-H1703,0.16
16,NCI-H1944,0.3
17,NCI-H2170,0.283
18,SK-MES-1,0.283

# Same assay, conditions: first compound 0.1 µM
row,Cell Line,relative viability
1,201T,0.666
2,A549,0.0573
3,A-427,0.092
4,ABC-1,0.216
5,BEN,0.249
6,CAL-12T,0.143
7,COR-L23,0.0565
8,COR-L 105,0.23
9,Calu-6,0.0567
10,ChaGo-K-1,0.348
11,EBC-1,0.117
12,EKVX,0.169
13,EMC-BAC-2,0.258
